Patent US10526343B2, “Heterocyclic systems and pharmaceutical applications thereof” (University of Sharjah, priority 2018, dated 2020)

Key:
MRSA-1 = experiment: Time-kill study; format: cell-based, Staphylococcus aureus
Protocol: Time-kill study: Compound 1o was tested for the time required to kill the bacterial strain MRSA-1. A time-kill assay was performed by the broth micro-dilution method in accordance with the CLSI guidelines. Inoculum suspensions with approximately 5×10^5 CFU/mL of exponentially growing bacterial cells were incubated in each well of a 96-well plate. […] Aliquots of 20 μL were removed from the inoculum culture after timed intervals of incubation (i.e. 0, 30 minutes, 1, 2, 4, 6, 8, and 24 hours), and serial 10-fold dilutions were prepared in 0.85% sodium chloride solution. Then, 10-100 μL of each dilution (as appropriate) were spread on the surface of Mueller-Hinton agar plates and incubated at 37° C. for 24 hours. Plate count technique was used to determine the number of viable cells for each time point. The experiments were performed in triplicate. Meropenem and ciprofloxacin were used as quality control antibiotics.

[1] = system: Staphylococcus aureus (ATCC 25923); experiment: Cell viability assay (resazurin) screening for antibacterial activity; format: cell-based; conditions: single high concentration of 1 mg/mL
[2] = system: Pseudomonas aeruginosa (ATCC 27853); experiment: as above; format: cell-based; set-up: key: Positive: A positive result indicates antibacterial activity expressed as growth inhibition; Negative: a negative result indicates no antibacterial activity expressed as bacterial growth at the tested concentration; conditions: single high concentration of 1 mg/mL
[3] = system: UDH-5 (environmental isolate, S. epidermidis); experiment: MIC by broth microdilution; format: cell-based; conditions: Staphylococcus epidermidis
Protocol: (§1) Bacteria of the genus Staphylococcus were selected for MIC investigation due to its clinical importance. Compounds showing activity against S. aureus (ATCC 25923) were tested against 10 multidrug-resistant strains of Staphylococcus species, including: clinical isolates methicillin-resistant Staphylococcus aureus (MRSA) strains MRSA-1, MRSA-2, and MRSA-3, and environmental isolates S. saprophyticus (strains UDH-1, UDH-2, UDH-3 and UDH-4), S. haemolyticus (strains UDH-6 and UDH-7), and S. epidermidis strain UDH-5.
(§2) All these strains were resistant to at least three antibiotics from different classes, as confirmed by a disk diffusion assay.
(§3) A broth microdilution method was used to measure MIC according to the Clinical and Laboratory Standards Institute guidelines. Two-fold serial dilutions of the test compound (8 concentrations ranged between 100-0.78 μg/mL) were tested. Two reference antibiotics were used as quality controls (ciprofloxacin and amikacin). In each experiment, solvent (DMSO) was used as a negative control, un-treated control (composing of bacteria in Mueller-Hinton broth) was used as a growth control, blank (culture media alone) was used as sterility control. The 96-well microplate with the test compounds was incubated for 20 hours at 37° C. Turbidity in wells indicated bacterial growth. […] For the definite determination of MIC, CellTiter-Blue® Cell Viability Assay (Promega, USA) was used (as above). The MIC was defined as the lowest compound concentration that prevented the color change of the Cell Viability solution (absence of bacterial growth; thus, suspension remained blue in color). For the definite determination of MIC, CellTiter-Blue® Cell Viability Assay (Promega, USA) was used (as above). To each well of the 96-well microplate, 20 μL of the Cell Viability Assay solution was added to the overnight (20 hours culture) and incubated at 37° C. for 4 hours. After the end of the incubation, pink and blue colors were used to differentiate viable from dead bacterial suspensions, respectively. The MIC was defined as the lowest compound concentration that prevented the color change.

[4] = system: UDH-6 (environmental isolate, S. haemolyticus); experiment: MIC by broth microdilution; format: cell-based
Protocol: as §1, §2, §3

[5] = system: UDH-1 (environmental isolate, S. saprophyticus); experiment: MIC by broth microdilution; format: cell-based
Protocol: as §1, §2, §3

[6] = system: UDH-3 (environmental isolate, S. saprophyticus); experiment: MIC by broth microdilution; format: cell-based
Protocol: as §1, §2, §3

[7] = system: UDH-4 (environmental isolate, S. saprophyticus); experiment: MIC by broth microdilution; format: cell-based; conditions: Staphylococcus saprophyticus
Protocol: as §1, §2, §3

[8] = system: UDH-7 (environmental isolate, S. haemolyticus); experiment: MIC by broth microdilution; format: cell-based
Protocol: as §1, §2, §3

[9] = system: UDH-2 (environmental isolate, S. saprophyticus); experiment: MIC by broth microdilution; format: cell-based; conditions: Staphylococcus saprophyticus
Protocol: as §1, §2, §3

[10] = system: Bacillus subtilis (environmental isolate); experiment: Cell viability assay (resazurin) screening for antibacterial activity; format: cell-based; set-up: key: Positive: A positive result indicates antibacterial activity expressed as growth inhibition; Negative: a negative result indicates no antibacterial activity expressed as bacterial growth at the tested concentration; conditions: single high concentration of 1 mg/mL
S. aureus (ATCC 25923) = experiment: MIC by broth microdilution; format: cell-based; conditions: Staphylococcus aureus, ATCC25923
Protocol: as §1, §3

[11] = Staphylococcus haemolyticus, environmental isolate
[12] = Staphylococcus saprophyticus, environmental isolate

MIC [3]: 3.12 µg/mL | MIC [5, 12]: 6.25 µg/mL | times lower than MIC of ciprofloxacin ([5]; UDH-1): approximately 10 times | MIC [6, 12]: 3.12 µg/mL | times lower than MIC of ciprofloxacin ([6]; UDH-3): approximately 20 times | MIC [7]: 6.25 µg/mL | MIC [9]: 6.25 µg/mL | MIC (S. aureus (ATCC 25923)): 3.12 µg/mL
SMILES: COC(=O)CC1COc2c(cc3c4c2CCCN4CCC3)-c2c(NC(C)(C)C)n3c(-c4ccc(Br)cc4)c(C)sc3[n+]21 (centres unmarked) [Compound 1o]
time of exposure at which killing was achieved (MRSA-1; 12.5 μg/mL): 6 h | time of exposure at which killing was achieved (MRSA-1; 25 μg/mL): 2 h | time of exposure at which killing was achieved (MRSA-1; 3.125-6.25 μg/mL): 24 h | time of exposure to complete elimination of MRSA growth (MRSA-1; concentration ≥50 μg/mL): ≤ 30 min | time of exposure at which killing was achieved (MRSA-1; concentrations between 50-100 μg/mL): 0.5 h | antibacterial activity, Staphylococcus aureus [1]: positive antibacterial activities | antibacterial activity, Pseudomonas aeruginosa [2]: Negative | MIC [4, 11]: 6.25 µg/mL | times lower than MIC of ciprofloxacin ([4]; UDH-6): approximately 10 times | MIC [8, 11]: 6.25 µg/mL | times lower than MIC of ciprofloxacin ([8]; UDH-7): approximately 10 times | antibacterial activity, Bacillus subtilis [10]: Positive
